Converted amounts (≈) assume the structure as drawn. Like-named read-outs stand apart in the source and are kept apart here.
Tested on: Escherichia coli
Test: Broth microdilution MIC, 50 clinical isolates (incl. ESBL, one NDM-1)
Assay type: cell-based
Procedure: Minimal inhibitory concentration (MIC) values were determined by broth microdilution or agar dilution in accordance with guidelines from the Clinical and Laboratory Standards Institute (CLSI; (1) “Methods for Dilution Antimicrobial Susceptibility Tests for Bacteria That Grow Aerobically; Approved Standard; 11th ed.” CLSI standard M07-A11, 2018; (2) “Performance Standards for Antimicrobial Susceptibility Testing; Twenty-Eighth Informational Supplement,” CLSI document M100-S28, 2018; and (3) “Methods for Antimicrobial Susceptibility Testing of Anaerobic Bacteria; Approved Standard—Eighth Edition,” CLSI document M11-A8, 2012).
Tested aerobically by broth microdilution: • Escherichia coli, n=50 • Klebsiella spp., n=50 • Pseudomonas aeruginosa, n=50 • Streptococcus spp., n=50 • Staphylococcus aureus, n=50 • Enterococcus faecalis, n=50 • Enterobacter aerogenes, n=50 • Proteus mirabilis, n=50
Broth microdilution testing of aerobic bacteria was conducted in cation-adjusted Mueller Hinton broth (MHBII). For testing streptococci, lysed horse blood (LHB) was added to MHBII broth at a final concentration of 3%. Where LHB was used, it was added after filtering.
Broth microdilution susceptibility testing in 96-well microplates was conducted in accordance with CLSI methods (1) and (2). Automated liquid handlers were used to conduct serial dilutions and liquid transfers, including the Multidrop 384 (Labsystems, Helsinki, Finland), Biomek 2000, and the Biomek FX (Beckman Coulter, Fullerton, Calif.). All wells in columns 2 through 12 of a standard 96-well microdilution plate (Costar 3795) were filled with 150 μL of the appropriate diluent. Then, 300 μL of the test agents were added to the wells of column 1 of the plates at 100× the highest final concentration to be tested. Serial two-fold dilutions were made across the rows through column 11 using the Biomek 2000. The wells of column 12 contained no drug and served as the growth control wells. This plate served as the “mother plate” from which MIC assay plates or “daughter plates” were made.
The daughter plates were loaded with 190 μL per well of the appropriate medium using the Multidrop 384. The daughter plates were created using the Biomek FX which transferred 2 μL of drug solution from each well of a mother plate to each corresponding well of the daughter plate in a single step. A standardized inoculum of each test organism was prepared per CLSI methods (1) to equal a 0.5 McFarland standard, followed by a dilution of 1:20 for aerobes and 1:10 for anaerobes. The plates were then inoculated with 10 μL of the diluted inoculum using the Biomek 2000 from low to high drug concentration, resulting in a final concentration of approximately 5×10^5 CFU/mL per well. An un-inoculated plate was incubated in parallel for each medium for the purpose of assessing solubility of the drug in the test media.
Inoculated plates were stacked 3 or 4 high, covered with a sterile lid on the top plate, placed into boxes with CO2 planchets (streptococci) or plastic bags (all other isolates). Plates were incubated at 35° C. for 16-24 hr in ambient air for aerobes or for 42-48 hr in the anaerobic environment of the Bactron II anaerobe chamber (Sheldon Manufacturing Co.; Cornelius, Oreg.). Following incubation, the microplates were removed from the incubator and viewed from the bottom using a plate viewer. The MIC values were read and recorded as the lowest concentration of drug that inhibited visible growth of the organism as per CLSI methods (1) and (2).

Molecule	Mode	Cumulative percentage of isolates inhibited at MIC (0.5 μg/mL)	Number of test isolates at MIC (0.5 μg/mL)	Cumulative percentage of isolates inhibited at MIC (2 μg/mL)	Number of test isolates at MIC (2 μg/mL)	Cumulative percentage of isolates inhibited at MIC (4 μg/mL)	Number of test isolates at MIC (4 μg/mL)	Cumulative percentage of isolates inhibited at MIC (8 μg/mL)	Number of test isolates at MIC (8 μg/mL)	Cumulative percentage of isolates inhibited at MIC (16 μg/mL)	Number of test isolates at MIC (16 μg/mL)	Cumulative percentage of isolates inhibited at MIC (32 μg/mL)	Number of test isolates at MIC (32 μg/mL)	Cumulative percentage of isolates inhibited at MIC (128 μg/mL)	Number of test isolates at MIC (128 μg/mL)	other results
COc1c(N2C[C@@H]3CCCN[C@@H]3C2)c(F)cc2c(=O)c(C(=O)O)cn(C3CC3)c12 [moxifloxacin]	0.03 µg/mL	60.0%	2	64.0%	2	66.0%	1	70.0%	2	88.0%	9	98.0%	5	100.0%	1	MIC range: 0.015 to 128 µg/mL; Cumulative percentage of isolates inhibited at MIC (0.015 μg/mL): 4.0%; Number of test isolates at MIC (0.015 μg/mL): 2; Cumulative percentage of isolates inhibited at MIC (0.03 μg/mL): 34.0%; Number of test isolates at MIC (0.03 μg/mL): 15; Cumulative percentage of isolates inhibited at MIC (0.06 μg/mL): 52.0%; Number of test isolates at MIC (0.06 μg/mL): 9; MIC50 (Escherichia coli, read-out: MIC50): 0.06 µg/mL (≈ 0.149 µM); MIC90 (Escherichia coli, read-out: MIC90): 32 µg/mL (≈ 79.7 µM); Number of test isolates at MIC ([…]): 1
piperacillin/tazobactam [piperacillin-tazobactam]	2 µg/mL	6.0%	2	64.0%	19	74.0%	5	78.0%	2	80.0%	1	86.0%	3	96.0%	2	% I: 12% ^; % R: 8%; % S: 80%; MIC50: 2 µg/mL; MIC90: 64 µg/mL; Cumulative percentage of isolates inhibited at MIC (1 μg/mL): 26.0%; Number of test isolates at MIC (1 μg/mL): 10; Cumulative percentage of isolates inhibited at MIC (64 μg/mL): 92.0%; Number of test isolates at MIC (64 μg/mL): 3; Cumulative percentage of isolates inhibited at MIC (>128 μg/mL): 100.0%; Number of test isolates at MIC (>128 μg/mL): 2; Cumulative percentage of isolates inhibited at MIC (≤[…]): 2.0%; Number of test isolates at MIC (≤[…]): 1
